Experimental data as given in patent publication US20240228468A1, “N-(6-((OCTAHYDROCYCLOPENTA[C]PYRROL-5-YI)AMINO)PYRIDAZIN-3-YL)PHENYL)CARBOXAMIDE AND (6- ((OCTAHYDROCYCLOPENTA[C]PYRROL-5-YL)AMINO)PYRIDAZIN-3-YL)BENZAMIDE DERIVATIVES AS MACHR M4 ANTAGONISTS FOR THE TREATMENT OF NEURODEGENERATIVE DISORDERS” (Vanderbilt University, priority 2021, published 2024).

Biological target: T1, Human M4 (Homo sapiens, UniProt P08173)
T1 construct: expressed in transfected cells; host or cells: CHO-K1 (ATCC), co-transfected with chimeric G protein Gqi5
T1 sequence (P08173 1-479): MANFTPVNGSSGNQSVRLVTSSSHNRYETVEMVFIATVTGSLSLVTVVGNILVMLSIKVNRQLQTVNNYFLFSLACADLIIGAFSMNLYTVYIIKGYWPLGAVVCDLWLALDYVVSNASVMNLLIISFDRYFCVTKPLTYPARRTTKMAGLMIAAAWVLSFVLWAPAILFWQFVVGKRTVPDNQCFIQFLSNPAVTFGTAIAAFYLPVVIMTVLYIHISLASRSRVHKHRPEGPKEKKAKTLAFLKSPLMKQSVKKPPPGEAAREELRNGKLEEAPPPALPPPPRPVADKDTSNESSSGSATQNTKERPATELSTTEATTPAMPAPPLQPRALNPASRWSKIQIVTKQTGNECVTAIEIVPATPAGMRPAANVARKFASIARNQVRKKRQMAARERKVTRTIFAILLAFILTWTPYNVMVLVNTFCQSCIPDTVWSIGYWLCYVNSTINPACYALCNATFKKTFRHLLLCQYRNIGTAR
Assay: mAChR M4 cell-based functional assay (calcium flux, antagonism of EC80 acetylcholine response)
Settings: M4/Gqi5/CHO-K1 cells; for IC50: concentration-dependent decrease of the response elicited by an EC80 concentration of acetylcholine
How it was run: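 CHO-K1 cells stably expressing human M4 with chimeric Gqi5, Fluo-4 loaded; calcium flux read on FDSS. Compound (10-point, 1:3 series) added first, then EC20 acetylcholine at 143 s and EC80 at 268 s. IC50 from concentration-dependent decrease of EC80 response, four-parameter logistic fit.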

Human M4 Emin (% ACh maximum at 30 μM) [%] | IC50 [nM] | Molecule
3 | 58 | [2H]C([2H])(C1CCOCC1)N1C[C@H]2C[C@H](Nc3ccc(-c4ccccc4NC(C)=O)nn3)C[C@H]2C1 [Compound B2, N-(2-(6-(((3aR,5s,6aS)-2-((tetrahydro-2H-pyran-4-yl)methyl-d2)octahydrocyclopenta [c]pyrrol-5-yl)amino)pyridazin-3-yl)phenyl)acetamide]
4 | 120 | [2H]C([2H])([2H])C(=O)Nc1ccccc1-c1ccc(N[C@H]2C[C@@H]3CN(CC4CCOCC4)C[C@@H]3C2)nn1 [Compound B3, N-(2-(6-(((3aR,5s,6aS)-2-((tetrahydro-2H-pyran-4-yl)methyl)octahydrocyclopenta [c]pyrrol-5-yl)amino)pyridazin-3-yl)phenyl) acetamide-2,2,2-d3]
4 | 120 | [2H]C([2H])([2H])C(=O)Nc1ccccc1-c1ccc(N[C@H]2C[C@@H]3CN(C([2H])([2H])C4CCOCC4)C[C@@H]3C2)nn1 [Compound B4, N-(2-(6-(((3aR,5s,6aS)-2-((tetrahydro-2H-pyran-4-yl)methyl-d2)octahydrocyclopenta [c]pyrrol-5-yl)amino)pyridazin-3-yl)phenyl) acetamide-2,2,2-d3]
4 | 1.4 | N-methyl-3-(6-(((3aR,5s,6aS)-2-(((S)- tetrahydro-2H-pyran-2-yl)methyl- d2)octahydrocyclopenta[c]pyrrol-5- yl)amino)pyridazin-3-yl)benzamide [Compound A80]
